Measurements published in patent publication US8263622B2, “Fused-ring derivative and medical application of same” (Kissei Pharmaceutical Co., Ltd., priority 2008, dated 2012).

Experiments:
[1] = target: T1, Xanthine oxidase (from bovine milk, Sigma) (Bos taurus, UniProt P80457); test: Xanthine oxidase inhibitory activity; type: biochemical; conditions: xanthine substrate, absorbance at 290 nm, 10 minutes at room temperature
T1 construct: Xanthine oxidase (from bovine milk, Sigma); purchased Sigma; host or cells: bovine milk
T1 sequence (P80457 whole entry): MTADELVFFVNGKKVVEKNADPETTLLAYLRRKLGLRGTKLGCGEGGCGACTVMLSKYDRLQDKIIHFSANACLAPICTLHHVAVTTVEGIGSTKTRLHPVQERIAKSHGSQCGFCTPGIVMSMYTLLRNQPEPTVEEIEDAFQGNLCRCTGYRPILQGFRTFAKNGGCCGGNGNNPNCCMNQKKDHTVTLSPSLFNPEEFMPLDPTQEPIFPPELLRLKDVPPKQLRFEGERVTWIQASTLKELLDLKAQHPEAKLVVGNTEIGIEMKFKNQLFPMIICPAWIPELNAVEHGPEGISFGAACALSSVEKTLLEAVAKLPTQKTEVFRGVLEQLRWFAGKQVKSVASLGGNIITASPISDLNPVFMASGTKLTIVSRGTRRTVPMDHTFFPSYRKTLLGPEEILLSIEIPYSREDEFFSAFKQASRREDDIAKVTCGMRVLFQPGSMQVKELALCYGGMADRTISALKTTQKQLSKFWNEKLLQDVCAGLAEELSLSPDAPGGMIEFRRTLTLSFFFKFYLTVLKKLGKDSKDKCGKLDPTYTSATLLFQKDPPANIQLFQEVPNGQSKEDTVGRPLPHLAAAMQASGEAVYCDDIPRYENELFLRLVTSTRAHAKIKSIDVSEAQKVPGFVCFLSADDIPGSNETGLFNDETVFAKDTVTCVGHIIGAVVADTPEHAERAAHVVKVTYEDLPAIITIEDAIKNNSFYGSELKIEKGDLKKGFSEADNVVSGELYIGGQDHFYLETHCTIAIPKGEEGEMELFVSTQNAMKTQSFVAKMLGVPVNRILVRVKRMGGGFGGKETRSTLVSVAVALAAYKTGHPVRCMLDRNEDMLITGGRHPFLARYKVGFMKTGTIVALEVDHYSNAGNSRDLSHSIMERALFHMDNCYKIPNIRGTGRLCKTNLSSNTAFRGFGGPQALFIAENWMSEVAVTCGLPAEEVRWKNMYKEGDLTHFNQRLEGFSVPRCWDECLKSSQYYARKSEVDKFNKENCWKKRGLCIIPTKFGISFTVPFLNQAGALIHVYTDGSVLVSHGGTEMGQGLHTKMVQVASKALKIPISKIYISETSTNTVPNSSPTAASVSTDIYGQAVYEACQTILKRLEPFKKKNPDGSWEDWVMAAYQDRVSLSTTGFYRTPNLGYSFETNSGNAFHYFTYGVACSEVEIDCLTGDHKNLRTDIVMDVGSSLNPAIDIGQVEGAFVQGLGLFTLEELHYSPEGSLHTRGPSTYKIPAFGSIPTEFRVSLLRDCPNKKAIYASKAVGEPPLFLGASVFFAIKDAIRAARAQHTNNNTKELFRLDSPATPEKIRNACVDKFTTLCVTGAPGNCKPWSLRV
Protocol: (1) Preparation of Test Compounds
Test compounds were dissolved in DMSO (Wako) at 40 mM concentration and then diluted to intended concentrations with phosphate-buffered saline (PBS).
(2) Method for Measurement
Xanthine oxidase (from bovine milk, Sigma) was prepared with phosphate-buffered saline (PBS) at 0.02 units/mL, and then the solution was added to 96 well plates at 50 μL/well. In addition, test compounds diluted with PBS were added at 50 μL/well. Xanthine (Wako) at 200 μM prepared with PBS was added at 100 μL/well, and the reaction was measured for 10 minutes at room temperature. Absorbance at 290 nm was measured using a microplate reader SpectraMax Plus 384 (Molecular device). The absorbance under a condition without xanthine is 0%, and control without test compounds is 100%. Fifty % inhibitory concentration (IC50) of test compounds was calculated (Table 11). Ex. No. in the table indicates example number.

[2] = target: T2, human URAT1 (Homo sapiens, UniProt Q96S37); test: Inhibitory activity of uric acid transport with human URAT1 expressing cells; type: cell-based; conditions: COS-7; concentration of 100 μM; 14C-uric acid uptake (20 μM) in COS7 cells transiently expressing human URAT1, 5 minutes, 37° C.; read-out: Percent inhibition
T2 construct: expressed in transfected cells; host or cells: COS7 cells (RIKEN CELL BANK RCB0539), transient, pcDNA3.1
T2 sequence (Q96S37 1-553): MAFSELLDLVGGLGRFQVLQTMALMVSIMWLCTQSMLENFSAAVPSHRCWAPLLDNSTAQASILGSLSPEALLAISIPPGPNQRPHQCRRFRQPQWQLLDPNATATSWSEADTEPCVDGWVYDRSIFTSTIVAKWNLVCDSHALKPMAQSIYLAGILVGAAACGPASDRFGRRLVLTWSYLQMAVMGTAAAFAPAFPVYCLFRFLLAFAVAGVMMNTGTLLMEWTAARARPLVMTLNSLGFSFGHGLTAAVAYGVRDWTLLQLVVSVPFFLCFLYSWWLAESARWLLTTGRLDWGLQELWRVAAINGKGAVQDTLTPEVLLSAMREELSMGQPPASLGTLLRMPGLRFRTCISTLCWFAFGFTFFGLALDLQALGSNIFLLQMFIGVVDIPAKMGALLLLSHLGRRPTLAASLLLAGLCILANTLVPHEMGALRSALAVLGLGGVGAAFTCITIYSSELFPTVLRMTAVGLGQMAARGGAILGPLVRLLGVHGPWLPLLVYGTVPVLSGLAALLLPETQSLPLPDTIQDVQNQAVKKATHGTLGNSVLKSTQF
Protocol: (1) Preparation of Transiently Human URAT1 Expressing Cells
Full length human URAT1 cDNA (NCBI Accession No. NM_144585) was subcloned into expression vector, pcDNA3.1 (Invitrogen). Human URAT1 expression vector was transfected into COS7 cells (RIKEN CELL BANK RCB0539) using Lipofectamine 2000 (Invitrogen). COS7 cells were seeded in collagen-coated 24 well plates (Japan Becton Dickinson) at 90-95% confluency and cultured in D-MEM culture medium (Invitrogen) containing 10% fetal bovine serum (Sanko Junyaku) for 2 hours at 37° C. under the condition of 5% CO2. For 1 well, 2 μL of Lipofectamine 2000 was diluted in 50 μL of OPTI-MEM (Invitrogen) and allowed to stand at room temperature for 7 minutes (hereinafter referred to as Lipo2000-OPTI). For 1 well, 0.8 μg of human URAT1 expression vector was diluted in 50 μL of OPTI-MEM (Invitrogen) and combined gently with Lipo2000-OPTI. After standing at room temperature for 25 minutes, the mixture was added to COS7 cells at 100 μL/well. Furthermore, COS7 cells were cultured for 2 days at 37° C. under the condition of 5% CO2 and used for measuring inhibitory activity on the uptake.
(2) Preparation of Test Compounds
Test compounds were dissolved in DMSO (Wako) at 10 mM concentration and then diluted to 2 times higher concentration than intended with pre-treatment buffer (125 mM sodium gluconate, 4.8 mM potassium gluconate, 1.2 mM potassium dihydrogen phosphate, 1.2 mM magnesium sulfate, 1.3 mM calcium gluconate, 5.6 mM glucose, 25 mM Hepes, pH 7.4). Pre-treatment buffer without test compounds was used for control. In addition, an equal volume of pre-treatment buffer containing ^14C-labeled uric acid (American Radiolabeled Chemicals, Inc.) was added to test compounds and control, and finally assay buffer including 20 μM uric acid was prepared.
(3) Method for Measurement
All tests were performed on hot-plate at 37° C. Pre-treatment buffer and assay buffer were incubated at 37° C. and then used for assays. Medium was removed from plates, and 700 μL of pre-treatment buffer was added, and the cells were pre-incubated for 10 minutes. After repeating same step, pre-treatment buffer was removed, and assay buffer was added at 400 μL/well. The uptake reaction was carried out for 5 minutes. After terminating the reaction, assay buffer was rapidly removed, and the cells were washed twice with addition of ice-cold pre-treatment buffer at 1.2 mL/well. Then, the cells were lysed by addition of 0.2N sodium hydroxide at 300 μL/well. The lysed solutions were transferred into Picoplate (PerkinElmer), and Microscinti 40 (PerkinElmer) was added at 600 μL/well. After mixing, the radioactivity was counted in a liquid scintillation counter (PerkinElmer). The radioactivity in COS7 cells not transfected with URAT1 expression vector was also counted under the same condition as control. […] As a result, it was shown that all Examples 2, 6, 7, 12, 13, 15, 22 and 31 have over 80% inhibition in a concentration of 100 μM. Percent inhibition (%)=[1−(B−C)/(A−C)]×100 A: Radioactivity in control B: Radioactivity in the case of addition of test compounds C: Radioactivity in COST cells not transfected with URAT1 expression vector

Compound	IC50 [1] [nM]	inhibition at 100 µM [2] [%]
N#Cc1cc(-c2cc(C(=O)O)ccn2)cc2ccccc12 [Example 1, 2-(4-Cyanonaphthalene-2-yl)isonicotinic acid]	11	–
N#Cc1cc(-c2cc(C(=O)O)c(O)cn2)cc2ccccc12 [Example 2, 2-(4-Cyanonaphthalene-2-yl)-5-hydroxyisonicotinic acid]	13	> 80
N#Cc1cc(-c2ccc(C(=O)O)cc2)nc2ccccc12 [Example 5, 4-(4-Cyanoquinoline-2-yl)benzoic acid]	81	–
N#Cc1cc(-c2ccc(C(=O)O)c(O)c2)nc2ccccc12 [Example 6, 4-(4-Cyanoquinoline-2-yl)-2-hydroxy-benzoic acid]	8	> 80
Cc1ccc2cc(-c3nc(C)c(C(=O)O)s3)cc(C#N)c2c1 [Example 8, 2-(4-Cyano-6-methylnaphthalene-2-yl)-4-methylthiazole-5-carboxylic acid]	11	–
Cc1nc(-c2cc(C#N)c3ccc(F)cc3c2)sc1C(=O)O [Example 12]	4	> 80
Cc1nc(-c2cc(C#N)c3c(C)ccc(F)c3c2)sc1C(=O)O [Example 15]	7	> 80
Cc1nc(-c2cc(C#N)c3c(F)cccc3c2)sc1C(=O)O [Example 22]	7	> 80

Second part, the compound after the results:

IC50 [1] [nM]	inhibition at 100 µM [2] [%]	Compound
20	–	N#Cc1cc(-c2ccc(C(=O)O)cc2)cc2ccccc12 [Example 4, 4-(4-Cyanonaphthalene-2-yl)benzoic acid]
7	> 80	Cc1nc(-c2cc(C#N)c3ccccc3c2)sc1C(=O)O [Example 7, 2-(4-Cyanonaphthalene-2-yl)-4-methylthiazole-5-carboxylic acid]
26	–	Cc1ccc2c(C#N)cc(-c3nc(C)c(C(=O)O)s3)cc2c1 [Example 9]
8	> 80	Cc1nc(-c2cc(C#N)c3cccc(F)c3c2)sc1C(=O)O [Example 13]
2	> 80	N#Cc1cc(-c2ncc(C(=O)O)s2)cc2ccccc12 [Example 31]
